Laboratory results taken from US9040707B2, “Bicyclic thiazoles as allosteric modulators of mGluR5 receptors” (Janssen Pharmaceutica NV, priority 2009, dated 2015).
Structures can show the parent of a compound that is named as a salt.

Experiments:
[1] = target: T1, human mGluR5a receptor (Homo sapiens, UniProt P41594); assay: Functional Assay 2: Ca2+ mobilization, HEK cells with human mGluR5a receptor (H10H cell line); type: cell-based; conditions: for EC50 / Emax: H10H cell line; for EC50: glutamate EC20; for Emax: HEK293, maximum average response at a single concentration, relative to glutamate ECMax
T1 construct: host or cells: HEK293A (monoclones H10H and H12H)
T1 sequence (P41594 21-1180 isoform P41594-2 limits assumed): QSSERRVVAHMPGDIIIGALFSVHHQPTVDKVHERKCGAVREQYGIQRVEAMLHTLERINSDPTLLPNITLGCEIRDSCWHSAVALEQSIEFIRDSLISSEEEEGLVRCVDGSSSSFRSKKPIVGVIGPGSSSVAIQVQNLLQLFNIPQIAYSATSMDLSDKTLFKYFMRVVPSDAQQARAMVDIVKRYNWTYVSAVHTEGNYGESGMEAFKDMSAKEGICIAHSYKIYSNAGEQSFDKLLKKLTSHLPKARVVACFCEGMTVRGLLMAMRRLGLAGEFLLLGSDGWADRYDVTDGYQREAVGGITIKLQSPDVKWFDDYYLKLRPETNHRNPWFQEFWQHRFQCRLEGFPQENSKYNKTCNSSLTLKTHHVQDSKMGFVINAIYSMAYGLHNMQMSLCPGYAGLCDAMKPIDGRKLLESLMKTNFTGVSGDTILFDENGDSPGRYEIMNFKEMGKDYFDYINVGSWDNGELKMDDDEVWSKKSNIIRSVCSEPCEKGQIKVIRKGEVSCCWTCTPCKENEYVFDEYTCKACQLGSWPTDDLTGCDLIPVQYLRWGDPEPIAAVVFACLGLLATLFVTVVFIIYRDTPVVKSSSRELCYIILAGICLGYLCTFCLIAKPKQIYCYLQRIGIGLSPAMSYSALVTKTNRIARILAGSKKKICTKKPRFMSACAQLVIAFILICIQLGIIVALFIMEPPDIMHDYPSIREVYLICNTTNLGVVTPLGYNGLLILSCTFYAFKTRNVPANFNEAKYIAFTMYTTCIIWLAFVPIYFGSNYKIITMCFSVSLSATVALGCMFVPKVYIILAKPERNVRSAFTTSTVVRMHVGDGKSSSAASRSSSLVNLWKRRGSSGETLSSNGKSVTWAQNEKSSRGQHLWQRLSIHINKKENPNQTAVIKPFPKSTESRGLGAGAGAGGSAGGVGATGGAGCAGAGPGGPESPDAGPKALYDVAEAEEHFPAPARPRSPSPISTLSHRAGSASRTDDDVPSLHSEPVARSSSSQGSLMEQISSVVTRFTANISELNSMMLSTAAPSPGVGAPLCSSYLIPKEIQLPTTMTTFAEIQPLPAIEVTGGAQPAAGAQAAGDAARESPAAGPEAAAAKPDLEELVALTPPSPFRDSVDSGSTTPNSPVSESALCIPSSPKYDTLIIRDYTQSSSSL
Protocol: Human mGluR5a cDNA in pCMV6-XL6 mammalian expression plasmid was purchased from OriGene Technologies, Inc. (catalogue number SC326357) and subcloned into pcDNA3.1(−). […] Monoclones were named for the species (“H” for human) plus the location on the plate (e.g. “10H”).
The following day, the growth medium was removed and the cells were washed with assay buffer containing 1× Hank's balanced salt solution (Invitrogen, Carlsbad, Calif.), 20 mM HEPES, 2.5 mM probenecid, pH 7.4 and left with 20 μL of this reagent. Following this step, the cells were loaded with calcium indicator dye, fluo-4 AM, to a final concentration of 2 μM and incubated for 40-45 min at 37° C. The dye solution was removed and replaced with assay buffer. Cell plates were held for 10-15 min at room temperature and were then loaded into the Functional Drug Screening System 6000 (FDSS 6000, Hamamatsu, Japan).
After establishment of a fluorescence baseline for about 3 seconds, the compounds of the present invention were added to the cells, and the response in cells was measured. 2.3 minutes later an EC20 concentration of the mGluR5 receptor agonist glutamate was added to the cells, and the response of the cells was measured for about 1.7 minutes. All test compounds were dissolved and diluted to a concentration of 10 mM in 100% DMSO and then serially diluted into assay buffer for a 2× stock solution in 0.6% DMSO; stock compounds were then added to the assay for a final DMSO concentration of 0.3% after the first addition to the assay well. Calcium fluorescence measures were recorded as fold over basal fluorescence; raw data was then normalized to the maximal response to glutamate.
The concentration-response curves of compounds of the present invention, obtained in the presence of EC20 of mGluR5 receptor agonist glutamate to determine positive allosteric modulation, were generated using Microsoft Excel with IDBS XLfit add-ins. The raw data file containing all time points was used as the data source in the analysis template. This was saved by the FDSS as a tab-delimitted text file. Data were normalized using a static ratio function (F/F0) for each measurement of the total 350 values per well divided by each well's initial value. […] This is sufficient time to capture the peak amplitude of the cellular calcium response. […] Each of the three values collected at each concentration of test compound were weighted evenly. […] These two methods are in good agreement for curves with a clear plateau at the high concentration range.

[2] = target: T2, human mGluR5 receptor (Homo sapiens, UniProt P41594); assay: Functional Assay 1: intracellular Ca2+ mobilization, positive allosteric modulation of glutamate EC20 response; type: cell-based; conditions: for Emax: maximum % effect relative to glutamate ECMax
T2 construct: expressed in transfected cells; host or cells: HEK-293
T2 sequence (P41594 21-1180 isoform P41594-2 limits assumed): as above
Protocol: HEK-293 cells were stable transfected with human mGluR5a cDNA in expression vector pcDNA4/TO. For Assay 1, these human mGluR5 receptor over-expressing HEK-293 cells were grown at a density of 40,000 cells/well in PDL-coated 384-well plates. The following day, cells were preloaded with the calcium-sensing dye Fluo-4 AM and various concentrations of test compound were added in the absence of exogenous glutamate to test for direct agonist activity. Shortly (2.5 min) thereafter, an EC20 equivalent of glutamate (˜0.2 μM) was added. The fluorescence signal was monitored using a Hamamatsu Functional Drug Screening System (FDSS) fluorescence plate reader following the addition of compound alone (direct agonist response) and then the further addition of an EC20 of glutamate (positive allosteric modulation response). The pEC50 was defined as the negative log of the test compound concentration which produced an increase in the glutamate EC20-mediated response that was 50% of maximum. Individual amplitudes were expressed as % effect by multiplying each amplitude by 100 and then dividing the product by the mean of the amplitudes derived from the glutamate ECMax-treated wells. Emax values reported in this application are defined as the maximum % effect obtained in a concentration-response curve.

[3] = human mGluR5 over-expressing HEK-293 cells, glutamate EC20 (~0.2 μM), updated value

Structure (SMILES)	EC50 [1] [µM]	Emax [1] [%]	other results
O=C1c2sc(OCc3ccccc3)nc2CCN1Cc1ccc(F)cc1F [Compound 13, 5-[(2,4-difluorophenyl)methyl]-6,7-dihydro-2-(phenylmethoxy)-thiazolo[5,4-c]pyridin-4(5H)-one]	1.86	48	melting point: 108 to 111.2 °C
O=C1c2sc(OCc3cccc(F)c3)nc2CCN1c1ccc(F)cc1 [Compound 19, 5-(4-fluorophenyl)-2-[(3-fluorophenyl)methoxy]-6,7-dihydro-thiazolo[5,4-c]pyridin-4(5H)-one]	0.214	38	melting point: 127.4 to 128.9 °C
C[C@@H](N1CCc2nc(COc3ccc(F)cc3)sc2C1=O)C(C)(C)C [Compound 34, 2-[(4-fluorophenoxy)methyl]-6,7-dihydro-5-[(1R)-1,2,2-trimethylpropyl]-thiazolo[5,4-c]pyridin-4(5H)-one]	1.48	48	–
O=C1c2sc(COc3ccccc3)nc2CCN1c1ccncc1 [Compound 49, 6,7-dihydro-2-(phenoxymethyl)-5-(4-pyridinyl)-thiazolo[5,4-c]pyridin-4(5H)-one]	–	–	pEC50 [1]: 5.57
CC(C)N1CCc2nc(COc3cccc(F)c3)sc2C1=O [Compound 64, 2-[(3-fluorophenoxy)methyl]-6,7-dihydro-5-(1-methylethyl)-thiazolo[5,4-c]pyridin-4(5H)-one]	> 30.2	18	–
O=C1NCCc2nc(OCc3ccccc3)sc21 [Compound 65, 6,7-dihydro-2-(phenylmethoxy)-thiazolo[5,4-c]pyridin-4(5H)-one]	–	–	EC50 [2, 3]: > 30.2 µM; Emax [2]: 25%
N#Cc1cc(COc2nc3c(s2)C(=O)NCC3)ccc1F [Compound 66, 2-fluoro-5-[[(4,5,6,7-tetrahydro-4-oxothiazolo[5,4-c]pyridin-2-yl)oxy]methyl]-benzonitrile]	–	–	EC50 [2, 3]: > 30.2 µM; Emax [2]: 24%
Cc1ccccc1COc1nc2c(s1)C(=O)NCC2 [Compound 67, 6,7-dihydro-2-[(2-methylphenyl)methoxy]-thiazolo[5,4-c]pyridin-4(5H)-one]	> 30.2	18	–
Cc1cccc(COc2nc3c(s2)C(=O)NCC3)c1 [Compound 68, 6,7-dihydro-2-[(3-methylphenyl)methoxy]-thiazolo[5,4-c]pyridin-4(5H)-one]	> 30.2	20	–
O=C1NCCc2nc(OCc3ccccc3F)sc21 [Compound 69, 2-[(2-fluorophenyl)methoxy]-6,7-dihydro-thiazolo[5,4-c]pyridin-4(5H)-one trifluoroacetate]	–	–	EC50 [2, 3]: > 30.2 µM; Emax [2]: 15%
O=C1NCCc2nc(OCc3cccc(F)c3)sc21 [Compound 70, 2-[(3-fluorophenyl)methoxy]-6,7-dihydro-thiazolo[5,4-c]pyridin-4(5H)-one trifluoroacetate]	–	–	EC50 [2, 3]: > 30.2 µM; Emax [2]: 15%
O=C1NCCc2nc(OCc3ccc(F)cc3)sc21 [Compound 71, 2-[(4-fluorophenyl)methoxy]-6,7-dihydro-thiazolo[5,4-c]pyridin-4(5H)-one trifluoroacetate]	–	–	EC50 [2, 3]: > 30.2 µM; Emax [2]: 8%
Cc1ccc(COc2nc3c(s2)C(=O)NCC3)cc1 [Compound 72, 6,7-dihydro-2-[(4-methylphenyl)methoxy]-thiazolo[5,4-c]pyridin-4(5H)-one]	–	–	EC50 [2, 3]: > 30.2 µM; Emax [2]: 10%
COc1cccc(COc2nc3c(s2)C(=O)N(c2ccc(F)cc2F)CC3)c1 [Compound 80, 5-(2,4-difluorophenyl)-6,7-dihydro-2-[(3-methoxyphenyl)methoxy]-thiazolo[5,4-c]pyridin-4(5H)-one]	–	–	EC50 [2, 3]: > 30.2 µM; Emax [2]: 26%

Now from value to molecule, other results behind:

EC50 [1] [µM]	Emax [1] [%]	Structure (SMILES)	other results
0.309	57	O=C1c2sc(OCc3ccccc3)nc2CCN1c1ccc(F)cc1 [Compound 1, 5-(4-fluorophenyl)-6,7-dihydro-2-(phenylmethoxy)-thiazolo[5,4-c]pyridin-4(5H)-one]	EC50 [2, 3]: 1.29 µM; Emax [2]: 64%; EC50 ([2]; original value, which was updated as compound was further tested): 0.851 µM
> 10	84	O=C1NCCc2nc(COc3ccccc3)sc21 [Compound 2, 6,7-dihydro-2-(phenoxymethyl)-thiazolo[5,4-c]pyridin-4(5H)-one]	melting point: 170.5 °C
2.29	78	O=C1c2sc(COc3ccccc3)nc2CCN1CC1CCOCC1 [Compound 3, 6,7-dihydro-2-(phenoxymethyl)-5-[(tetrahydro-2H-pyran-4-yl)methyl]-thiazolo[5,4-c]pyridin-4(5H)-one]	–
> 10	69	COCCN1CCc2nc(COc3ccccc3)sc2C1=O [Compound 4, 6,7-dihydro-5-(2-methoxyethyl)-2-(phenoxymethyl)-thiazolo[5,4-c]pyridin-4(5H)-one]	–
1.2	84.5	Cc1ccc(N2CCc3nc(COc4ccccc4)sc3C2=O)nc1 [Compound 5, 6,7-dihydro-5-(5-methyl-2-pyridinyl)-2-(phenoxymethyl)-thiazolo[5,4-c]pyridin-4(5H)-one]	–
0.457	75	O=C1c2sc(COc3ccc(F)cc3)nc2CCN1c1ccc(F)cc1 [Compound 6, 2-[(4-fluorophenoxy)methyl]-5-(4-fluorophenyl)-6,7-dihydro-thiazolo[5,4-c]pyridin-4(5H)-one]	melting point: > 280 °C
0.214	81	O=C1c2sc(COc3ccccc3)nc2CCCN1c1ccc(F)cc1 [Compound 11, 5-(4-fluorophenyl)-5,6,7,8-tetrahydro-2-(phenoxymethyl)-4H-thiazolo[5,4-c]azepin-4-one]	melting point: 120.4 °C
3.47	45	CN1CCc2nc(OCc3ccccc3)sc2C1=O [Compound 24, 6,7-dihydro-5-methyl-2-(phenylmethoxy)-thiazolo[5,4-c]pyridin-4(5H)-one]	–
2	71	COc1ccccc1N1CCc2nc(COc3ccccc3F)sc2C1=O [Compound 36, 2-[(2-fluorophenoxy)methyl]-6,7-dihydro-5-(2-methoxyphenyl)-thiazolo[5,4-c]pyridin-4(5H)-one]	–
0.832	85	O=C1c2sc(COc3ccccc3)nc2CCN1c1ccccn1 [Compound 45, 6,7-dihydro-2-(phenoxymethyl)-5-(2-pyridinyl)-thiazolo[5,4-c]pyridin-4(5H)-one]	–
0.251	82	O=C1c2sc(COc3ccccc3)nc2CCN1c1ccc(F)cn1 [Compound 47, 5-(5-fluoro-2-pyridinyl)-6,7-dihydro-2-(phenoxymethyl)-thiazolo[5,4-c]pyridin-4(5H)-one]	–
4.68	78	O=C1c2sc(COc3ccccc3)nc2CCN1c1cccnc1 [Compound 48, 6,7-dihydro-2-(phenoxymethyl)-5-(3-pyridinyl)-thiazolo[5,4-c]pyridin-4(5H)-one]	–
1.38	69	O=C1c2sc(COc3ccccc3)nc2CCN1c1ncccc1F [Compound 50, 5-(3-fluoro-2-pyridinyl)-6,7-dihydro-2-(phenoxymethyl)-thiazolo[5,4-c]pyridin-4(5H)-one]	–
3.63	75	Cc1ccnc(N2CCc3nc(COc4ccccc4)sc3C2=O)c1 [Compound 51, 6,7-dihydro-5-(4-methyl-2-pyridinyl)-2-(phenoxymethyl)-thiazolo[5,4-c]pyridin-4(5H)-one]	–
1.35	82	Cc1cccnc1N1CCc2nc(COc3ccccc3)sc2C1=O [Compound 52, 6,7-dihydro-5-(3-methyl-2-pyridinyl)-2-(phenoxymethyl)-thiazolo[5,4-c]pyridin-4(5H)-one]	–
0.562	71	O=C1c2sc(COc3ccccc3)nc2CCN1c1ccncc1F [Compound 58, 5-(3-fluoro-4-pyridinyl)-6,7-dihydro-2-(phenoxymethyl)-thiazolo[5,4-c]pyridin-4(5H)-one]	–
2.63	37.5	CC(C)N1CCc2nc(COc3ccccc3)sc2C1=O [Compound 63, 6,7-dihydro-5-(1-methylethyl)-2-(phenoxymethyl)-thiazolo[5,4-c]pyridin-4(5H)-one]	–
